Values joined by “and” are separate entries in the source; they are usually repeats but may differ in a detail not shown here. Equal values may be shown once.
Test system: 168753-222-R-J1-PDC complex spheroid viability
Assay: Anticancer human tumor 168753-222-R-J1-PDC patient-derived bladder carcinoma cell line growth inhibition [CLK]
Conditions: for IC50: curve of first compound; for viability, T/C: stronger effect = lower value
How it was run: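 Patient-derived tumor cells grown as complex spheroids with HUVEC endothelial cells and mesenchymal stem cells, treated with drug combinations. Concentrations descend in half-log steps from near clinical Cmax, or from 10 microM if Cmax unknown.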

[1] = second compound 0.0316 µM, first compound 0.0316 µM
[2] = second compound 0.0316 µM, first compound 0.1 µM
[3] = second compound 0.0316 µM, first compound 0.316 µM
[4] = second compound 0.0316 µM, first compound 1 µM
[5] = second compound 0.0316 µM, first compound 3.16 µM
[6] = second compound 0.0316 µM, first compound 10 µM
[7] = second compound 0.1 µM, first compound 0.0316 µM
[8] = second compound 0.1 µM, first compound 0.1 µM
[9] = second compound 0.1 µM, first compound 0.316 µM
[10] = second compound 0.1 µM, first compound 1 µM
[11] = second compound 0.1 µM, first compound 3.16 µM
[12] = second compound 0.1 µM, first compound 10 µM
[13] = second compound 0.316 µM, first compound 0.0316 µM
[14] = second compound 0.316 µM, first compound 0.1 µM
[15] = second compound 0.316 µM, first compound 0.316 µM
[16] = second compound 0.316 µM, first compound 1 µM
[17] = second compound 0.316 µM, first compound 3.16 µM
[18] = second compound 0.316 µM, first compound 10 µM
[19] = second compound 1 µM, first compound 0.0316 µM
[20] = second compound 1 µM, first compound 0.1 µM
[21] = second compound 1 µM, first compound 0.316 µM
[22] = second compound 1 µM, first compound 1 µM
[23] = second compound 1 µM, first compound 3.16 µM
[24] = second compound 1 µM, first compound 10 µM
[25] = second compound 3.16 µM, first compound 0.0316 µM
[26] = second compound 3.16 µM, first compound 0.1 µM
[27] = second compound 3.16 µM, first compound 0.316 µM
[28] = second compound 3.16 µM, first compound 1 µM
[29] = second compound 3.16 µM, first compound 3.16 µM
[30] = second compound 3.16 µM, first compound 10 µM
[31] = second compound 10 µM, first compound 0.0316 µM
[32] = second compound 10 µM, first compound 0.1 µM
[33] = second compound 10 µM, first compound 0.316 µM
[34] = second compound 10 µM, first compound 1 µM
[35] = second compound 10 µM, first compound 3.16 µM
[36] = second compound 10 µM, first compound 10 µM
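Further: viability measured after seven days of drug exposure.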
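Wherever viability, T/C is given: luminescence signal used as surrogate for viable cell amount; 100% = DMSO vehicle control wells.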

## O=c1[nH]cc(F)c(=O)[nH]1 + CN1CCN(c2cc(C(=O)Nc3cc4cc(-c5cnn(C)c5)ccc4cn3)ccn2)CC1
Second compound 0.0316 µM
  IC50: 8930 nM
Second compound 0.1 µM
  IC50: 160 nM
Second compound 0.316 µM
  IC50: < 31.6 nM
Second compound 1 µM
  IC50: < 31.6 nM
Second compound 3.16 µM
  IC50: < 31.6 nM
Second compound 10 µM
  IC50: < 31.6 nM
[1]
  viability, T/C: 100%
[2]
  viability, T/C: 91.9%
[3]
  viability, T/C: 78.8%
[4]
  viability, T/C: 108%
[5]
  viability, T/C: 95.4%
[6]
  viability, T/C: 45.2%
[7]
  viability, T/C: 72%
[8]
  viability, T/C: 62.8%
[9]
  viability, T/C: 15.2%
[10]
  viability, T/C: 45.6%
[11]
  viability, T/C: 36.3%
[12]
  viability, T/C: 29%
[13]
  viability, T/C: 10.5%
[14]
  viability, T/C: 10%
[15]
  viability, T/C: 8.13%
[16]
  viability, T/C: 8.71%
[17]
  viability, T/C: 8.45%
[18]
  viability, T/C: 8.48%
[19]
  viability, T/C: 0.22%
[20]
  viability, T/C: 0.19%
[21]
  viability, T/C: 0.15%
[22]
  viability, T/C: 0.18%
[23]
  viability, T/C: 0.33%
[24]
  viability, T/C: 0.58%
[25]
  viability, T/C: 0.97%
[26]
  viability, T/C: 0.11%
[27]
  viability, T/C: 0.09%
[28]
  viability, T/C: 0.19%
[29]
  viability, T/C: 1.18%
[30]
  viability, T/C: 1.57%
[31]
  viability, T/C: 0.09%
[32]
  viability, T/C: 0.24%
[33]
  viability, T/C: 0.24%
[34]
  viability, T/C: 0.82%
[35]
  viability, T/C: 1.41%
[36]
  viability, T/C: 1.15%

## NC(=O)C(=Cn1cnc(-c2cc(C(F)(F)F)cc(C(F)(F)F)c2)n1)c1cncnc1 + CNC(=O)c1ccc(Nc2nc(OC3CCCC3)c3c(-c4ccc5nc(C)oc5c4)c[nH]c3n2)c(OC)c1
Second compound 0.0316 µM
  IC50: > 3000 nM
Second compound 0.1 µM
  IC50: 829 nM
Second compound 0.316 µM
  IC50: 142 nM
Second compound 1 µM
  IC50: 10.6 nM
Second compound 3.16 µM
  IC50: < 9.49 nM
Second compound 10 µM
  IC50: < 9.49 nM
Second compound 0.0316 µM, first compound 0.00949 µM
  viability, T/C: 103%
Second compound 0.0316 µM, first compound 0.03 µM
  viability, T/C: 105%
Second compound 0.0316 µM, first compound 0.0949 µM
  viability, T/C: 69%
Second compound 0.0316 µM, first compound 0.3 µM
  viability, T/C: 83%
Second compound 0.0316 µM, first compound 0.949 µM
  viability, T/C: 72.6%
Second compound 0.0316 µM, first compound 3 µM
  viability, T/C: 48.9%
Second compound 0.1 µM, first compound 0.00949 µM
  viability, T/C: 105%
Second compound 0.1 µM, first compound 0.03 µM
  viability, T/C: 121%
Second compound 0.1 µM, first compound 0.0949 µM
  viability, T/C: 89.9%
Second compound 0.1 µM, first compound 0.3 µM
  viability, T/C: 59.7%
Second compound 0.1 µM, first compound 0.949 µM
  viability, T/C: 58.3%
Second compound 0.1 µM, first compound 3 µM
  viability, T/C: 21.5%
Second compound 0.316 µM, first compound 0.00949 µM
  viability, T/C: 72.7%
Second compound 0.316 µM, first compound 0.03 µM
  viability, T/C: 73.5%
Second compound 0.316 µM, first compound 0.0949 µM
  viability, T/C: 61.8%
Second compound 0.316 µM, first compound 0.3 µM
  viability, T/C: 28%
Second compound 0.316 µM, first compound 0.949 µM
  viability, T/C: 23.1%
Second compound 0.316 µM, first compound 3 µM
  viability, T/C: 21.4%
Second compound 1 µM, first compound 0.00949 µM
  viability, T/C: 51.8%
Second compound 1 µM, first compound 0.03 µM
  viability, T/C: 33.7%
Second compound 1 µM, first compound 0.0949 µM
  viability, T/C: 14.7%
Second compound 1 µM, first compound 0.3 µM
  viability, T/C: 9.95%
Second compound 1 µM, first compound 0.949 µM
  viability, T/C: 2.29%
Second compound 1 µM, first compound 3 µM
  viability, T/C: 11.6%
Second compound 3.16 µM, first compound 0.00949 µM
  viability, T/C: 23.3%
Second compound 3.16 µM, first compound 0.03 µM
  viability, T/C: 14.8%
Second compound 3.16 µM, first compound 0.0949 µM
  viability, T/C: 11.7%
Second compound 3.16 µM, first compound 0.3 µM
  viability, T/C: 1.87%
Second compound 3.16 µM, first compound 0.949 µM
  viability, T/C: 1.14%
Second compound 3.16 µM, first compound 3 µM
  viability, T/C: 3.62%
Second compound 10 µM, first compound 0.00949 µM
  viability, T/C: 15.3%
Second compound 10 µM, first compound 0.03 µM
  viability, T/C: 13.7%
Second compound 10 µM, first compound 0.0949 µM
  viability, T/C: 8.71%
Second compound 10 µM, first compound 0.3 µM
  viability, T/C: 1.11%
Second compound 10 µM, first compound 0.949 µM
  viability, T/C: 2.71%
Second compound 10 µM, first compound 3 µM
  viability, T/C: 1.28%

## Nc1ccccc1NC(=O)c1ccc(CNC(=O)OCc2cccnc2)cc1 + CNC(=O)c1ccc(Nc2nc(OC3CCCC3)c3c(-c4ccc5nc(C)oc5c4)c[nH]c3n2)c(OC)c1
Second compound 0.0316 µM
  IC50: 5880 nM
Second compound 0.1 µM
  IC50: 5460 nM
Second compound 0.316 µM
  IC50: 4110 nM
Second compound 1 µM
  IC50: < 31.6 nM
Second compound 3.16 µM
  IC50: < 31.6 nM
Second compound 10 µM
  IC50: < 31.6 nM
[1]
  viability, T/C: 99.1%
[2]
  viability, T/C: 101%
[3]
  viability, T/C: 90.6%
[4]
  viability, T/C: 90.6%
[5]
  viability, T/C: 84.4%
[6]
  viability, T/C: 21.6%
[7]
  viability, T/C: 98.8%
[8]
  viability, T/C: 84.8%
[9]
  viability, T/C: 85.8%
[10]
  viability, T/C: 82.9%
[11]
  viability, T/C: 81.2%
[12]
  viability, T/C: 15.4%
[13]
  viability, T/C: 80%
[14]
  viability, T/C: 68.7%
[15]
  viability, T/C: 62.2%
[16]
  viability, T/C: 78.3%
[17]
  viability, T/C: 63.1%
[18]
  viability, T/C: 6.28%
[19]
  viability, T/C: 33.9%
[20]
  viability, T/C: 39%
[21]
  viability, T/C: 36.5%
[22]
  viability, T/C: 41.4%
[23]
  viability, T/C: 44.7%
[24]
  viability, T/C: 4.99%
[25]
  viability, T/C: 27.1%
[26]
  viability, T/C: 22.3%
[27]
  viability, T/C: 29.8%
[28]
  viability, T/C: 41.7%
[29]
  viability, T/C: 25.7%
[30]
  viability, T/C: 3.07%
[31]
  viability, T/C: 19.5%
[32]
  viability, T/C: 21%
[33]
  viability, T/C: 28.1%
[34]
  viability, T/C: 27.5%
[35]
  viability, T/C: 21.1%
[36]
  viability, T/C: 0.71%

## Nc1ccn(C2OC(CO)C(O)C2(F)F)c(=O)n1 (configuration not stated)
Compound 0.0316 µM
  viability, T/C: 57.8% and 83.1%
Compound 0.1 µM
  viability, T/C: 24.7% and 60.2%
Compound 0.316 µM
  viability, T/C: 18% and 50.2%
Compound 1 µM
  viability, T/C: 23.2% and 52.5%
Compound 3.16 µM
  viability, T/C: 26.2% and 46.9%
Compound 10 µM
  viability, T/C: 21.6% and 37.8%
